Results reported in patent US6903052B2, “Nematicidal compositions and methods” (Divergence, Inc., priority 2002, dated 2005).

Experiments:
C. elegans [1] = assay: Nematicidal activity of emulsions made with cyclodextrins (replacing isopropanol) against C. elegans; format: cell-based, Caenorhabditis elegans; conditions: igepal CO 630 / 2-Hydroxypropyl-β-Cyclodextrin emulsion
Source text: In an effort to increase the bioavailability of fatty acid methyl esters in emulsions, isopropanol was replaced with one of two cyclodextrins (Methyl-β-Cyclodextrin or 2-Hydroxypropyl-β-Cyclodextrin).

P. scribneri = assay: Nematicidal activity of fatty acid methyl ester emulsions, spectrum (Example 8); format: cell-based, Pratylenchus scribneri; conditions: P. scribneri mixed stage
Procedure: (§1) Briefly, the indicated fatty acid emulsions were added and rapidly mixed by swirling. Nematode viability was scored by visual observation and motility assays 24 hours following addition of emulsions (48 hours for plant parasitic nematodes Meloidogyne and Heterodera species). The fatty acid emulsions tested were methyl esters of nonanoic (pelargonic) acid, ricinelaidic acid, ricinoleic acid, vernolic acid, linoleic acid, and oleic acid. […] Results shown are mean % values obtained from multiple independent experiments
(§2) The Caenorhabiditis elegans were mixed stage populations. Similar effects seen on several other free-living nematode species. The Parastrongyloides trichosuri (parasite of Australian bushtail possum) were dauer-like infective 3rd stage larva. Similar effects are also seen against free-living stages. The Meloidogyne incognita and Meloidogyne javanica (root knot nematode) were 2nd stage juveniles (dauer-like infective stage). The Heterodera glycines (soybean cyst nematode) were 2nd stage juveniles (dauer-like infective stage). Finally, the Pratylenchus scribneri (corn lesion nematode) were mixed stage populations.

C. elegans [2] = assay: Rescue of C. elegans delta-12 FAT RNAi feeding phenotype by fatty acid methyl esters; format: cell-based, Caenorhabditis elegans; conditions: 3 mM added to the NGM media
Source text: RNAi by feeding: C. elegans can be grown on lawns of E. coli genetically engineered to produce double stranded RNA (dsRNA) designed to inhibit delta-12 fat-2 expression. Briefly, E. coli were transformed with a genomic fragment of a portion of the C. elegans fat-2 gene sequence, specifically a fragment 651 nucleotides long, containing the entire first exon and terminating just before the conserved intron splice junction between the first exon and first intron. This construct encodes approximately the first 217 amino acids of the C. elegans delta-12 FAT gene. The 651 nucleotide genomic fragment was cloned into an E. coli expression vector between opposing T7 polymerase promoters. The clone was then transformed into a strain of E. coli that carries an IPTG-inducible T7 polymerase. As a control, E. coli was transformed with a gene encoding the Green Fluorescent Protein (GFP). Feeding RNAi was initiated from C. elegans eggs or from C. elegans […]. […] When feeding RNAi was started from C. elegans L4 larvae at 23° C. on NGM plates containing IPTG and E. coli expressing the C. elegans […] […] The sequence of the fat-2 gene is of sufficiently high complexity (i.e., unique) such that the RNAi is not likely to represent cross reactivity with other genes. […]

C. elegans [3] = assay: Nematicidal activity of fatty acid methyl ester emulsions, spectrum (Example 8); format: cell-based, Caenorhabditis elegans; conditions: C. elegans mixed stage
Procedure: as §1, §2

H. glycines = assay: as above; format: cell-based, Heterodera glycines; conditions: H. glycines 2nd stage juveniles, scored at 48 hours
Procedure: as §1, §2

M. incognita = assay: as above; format: cell-based, Meloidogyne incognita; conditions: M. incognita 2nd stage juveniles, scored at 48 hours
Procedure: as §1, §2

M. javanica = assay: as above; format: cell-based, Meloidogyne javanica; conditions: M. javanica 2nd stage juveniles, scored at 48 hours
Procedure: as §1, §2

P. trichosuri = assay: as above; format: cell-based, Parastrongyloides trichosuri; conditions: P. trichosuri infective 3rd stage larva
Procedure: as §1, §2

C. elegans [4] = assay: Nematicidal activity of single fatty acid methyl ester emulsions against Caenorhabditis elegans (Example 4); format: cell-based
Procedure: Mixed stage Caenorhabditis elegans were washed off plates seeded with OP50 bacteria using M9 solution. 250 μl of the M9 solution, which contained about 50 worms, was pipetted into each well of a 24-well plate.
Fatty acid methyl ester emulsions were prepared following the teachings of Kim et al (U.S. Pat. No. 5,698,592). Briefly, 1 ml 1% stock solution emulsions were prepared by mixing 10 μl of fatty acid methyl ester with 20 μl of the surfactant Igepal CO 630 in a 1.5 ml eppendorf tube. After careful mixing of fatty acid and Igepal CO 630, 850 μl of ddH20 was added and mixed by gentle pipetting until a homogeneous solution was obtained. Finally, 120 μl of pure isopropanol was added and mixed by gentle pipetting. This stock solution was then used to produce various fatty acid methyl ester dilution emulsions in 24-well plate assays.
To each well, fatty acid emulsions or control emulsions were added and rapidly mixed by swirling. Nematode viability was scored by visual observation and motility assays at various time points 24 hours following addition of emulsions or controls. The fatty acid emulsions tested were methyl esters of nonanoic (pelargonic) acid, ricinoleic acid, vernolic acid, linoleic acid, oleic acid, and control emulsions lacking fatty acids.

C. elegans [5] = assay: Nematicidal activity of emulsions made with Tween-20 (replacing Igepal CO 630) against C. elegans; format: cell-based, Caenorhabditis elegans; conditions: Tween-20 emulsion
Procedure: Some nematodes assayed as described in Example 9 lacked tolerance to emulsions made with the surfactant Igepal CO 630. For this reason some assays were repeated with Tween-20-based emulsions.
Briefly, 1 ml 1% stock solution emulsions were prepared by mixing 10 μl of fatty acid methyl ester with 20 μl of the surfactant Tween-20 in a 1.5 ml eppendorf tube. After careful mixing of fatty acid and Tween-20, 850 μl of ddH20 was added and mixed by gentle pipetting until a homogeneous solution was obtained. Finally, 120 μl of pure isopropanol was added and mixed by gentle pipetting. This stock solution was then used to produce various fatty acid methyl ester dilution emulsions in 24-well plate assays.

[6] = system: free-living, animal parasitic, and plant parasitic nematodes; assay: Nematicidal activity across the spectrum of nematodes, summary statement (Example 8); format: cell-based
Procedure: as §1, §2

B. malayi = assay: Nematicidal activity of tween-based emulsions against microfilarial nematodes; format: cell-based, Brugia malayi
Procedure: To each well, tween-based fatty acid emulsions were added and rapidly mixed by swirling. Nematode microfilaria viability was scored by visual observation of motility at 24 and 48 hours following addition of emulsions. The fatty acid emulsions tested were methyl esters of ricinoleic acid, vernolic acid, ricinelaidic acid, oleic acid, and control emulsions lacking fatty acids. The results of this study are presented in Table 7 as the percentage of non-motile microfilaria 24 hours after inoculation and in Table 8 as the percentage of non-motile microfilaria 48 hours after inoculation

tomato seedlings = assay: Phytotoxicity evaluation on tomato seedlings; format: in vivo; conditions: 250 μl of 1% emulsion applied to stem-media interface of two-week seedlings
Procedure: Sterilized tomato seeds were germinated in magenta jars containing Gamborg's agar media. After two weeks of growth, seedlings were treated with 250 μl of 1% fatty acid methyl ester emulsion (nonanoic acid, ricinoleic acid, ricinelaidic acid, oleic acid, or a control emulsion lacking any fatty acid), applied directly to the stem-media interface. Tomato seedlings were scored at various times after application of emulsions.

| Compound | % Worm Death (24 hr) (P. scribneri; 0.01% solution) | % Worm Death (24 hr) (P. scribneri; 0.1% solution) | % Worm Death (24 hr) (C. elegans [3]; 0.001% solution) [%] | % Worm Death (24 hr) (C. elegans [3]; 0.01% solution) [%] | % Worm Death (24 hr) (C. elegans [3]; 0.1% solution) [%] | % Worm Death (24 hr) (H. glycines; 0.001% solution) [%] | % Worm Death (24 hr) (H. glycines; 0.01% solution) [%] | % Worm Death (24 hr) (H. glycines; 0.1% solution) [%] | % Worm Death (24 hr) (M. incognita; 0.01% solution) | % Worm Death (24 hr) (M. incognita; 0.1% solution) | % Worm Death (48 hr) (M. javanica; 0.01% solution) | % Worm Death (48 hr) (M. javanica; 0.1% solution) [%] | % Worm Death (24 hr) (P. trichosuri; 0.01% solution) | % Worm Death (24 hr) (P. trichosuri; 0.1% solution) | % Worm Death (24 hr) (C. elegans [5]; 0.01% solution) [%] | % Worm Death (24 hr) (C. elegans [5]; 0.1% solution) [%] | further results |
| --- | --- | --- | --- | --- | --- | --- | --- | --- | --- | --- | --- | --- | --- | --- | --- | --- | --- |
| CCCCC/C=C\C/C=C\CCCCCCCC(=O)OC [Linoleic Acid (C18-methyl ester), linoleic acid methyl ester, reference compound] | <20% | <20% | <10 | <10 | <10 | <20 | <20 | <20 | 20% | 20% | 0-5% | 20 | ˜25% | ˜25% | <10 | <10 | % Worm Death (24 hr) (C. elegans [1]; 0.01% solution): <10%; % Worm Death (24 hr) (C. elegans [1]; 0.1% solution): <10%; Rescue of the delta-12 FAT RNAi feeding phenotype (C. elegans [2]): partial rescue; Percentage of Worm Death (C. elegans [4]; 0.003% emulsion, 1 hr): 0-5%; Percentage of Worm Death (C. elegans [4]; 0.003% emulsion, 6 hr): 0-5%; Percentage of Worm Death (C. elegans [4]; 0.003% emulsion, 24 hr): 0-5%; Percentage of Worm Death (C. elegans [4]; 0.1% emulsion, 1 hr): 0-5%; Percentage of Worm Death (C. elegans [4]; 0.1% emulsion, 6 hr): 0-5%; Percentage of Worm Death (C. elegans [4]; 0.1% emulsion, 24 hr): 0-5% |
| CCCCCCC(O)C/C=C/CCCCCCCC(=O)OC (stereo not drawn) [Ricinelaidic, 12-hydroxy-trans-9-octadecenoic acid methyl ester] | ˜40% | ˜70% | 75 | 100 | 100 | 100 | 100 | 100 | ˜99% | ˜99% | 100% | 100 | 100% | 100% | 100 | 100 | Breadth of nematicidal activity (in words) [6]: favorable nematicidal activity against a wide spectrum of divergent nematode genera; Nematicidal activity (in words) ([6]; concentrations of 0.1% and 0.01%): strongly nematicidal; percentage of non-motile microfilaria (B. malayi; 24 hrs post-inoculation, 0.0008%): 0%; percentage of non-motile microfilaria (B. malayi; 24 hrs post-inoculation, 0.0016%): 19.1%; percentage of non-motile microfilaria (B. malayi; 24 hrs post-inoculation, 0.003%): 100%; percentage of non-motile microfilaria (B. malayi; 24 hrs post-inoculation, 0.005%): 100%; percentage of non-motile microfilaria (B. malayi; 24 hrs post-inoculation, 0.0067%): 100%; percentage of non-motile microfilaria (B. malayi; 24 hrs post-inoculation, 0.008%): 100%; percentage of non-motile microfilaria (B. malayi; 48 hrs post-inoculation, 0.0008%): 0%; percentage of non-motile microfilaria (B. malayi; 48 hrs post-inoculation, 0.0016%): 49.4%; percentage of non-motile microfilaria (B. malayi; 48 hrs post-inoculation, 0.003%): 100%; percentage of non-motile microfilaria (B. malayi; 48 hrs post-inoculation, 0.005%): 100%; percentage of non-motile microfilaria (B. malayi; 48 hrs post-inoculation, 0.0067%): 100%; percentage of non-motile microfilaria (B. malayi; 48 hrs post-inoculation, 0.008%): 100%; Microfilarialcidal activity (in words) (B. malayi; tween-based emulsions): strong microfilarialcidal activity; % Worm Death (24 hr) (M. incognita; 0.001% solution): 97%; % Worm Death (48 hr) (M. javanica; 0.001% solution): ˜60%; Visible effects on tomato seedlings (tomato seedlings): none of the tomatoes treated with the other fatty acid methyl ester emulsions showed visible effects; % Worm Death (24 hr) (C. elegans [5]; 0.001% solution): 60% |
